According to patent US9611230B2, “1,3,4-oxadiazole benzoic acid compounds and their use for nonsense suppression and the treatment of disease” (PTC Therapeutics, Inc., priority 2004, dated 2017):
Several values for one entry are separate records, joined by “and”; a condition that tells them apart may be missing. Identical values can stand only once.

How the values were obtained:
[1] = tested on: full-length luciferase protein produced by suppression of the premature termination codon; assay: Western blot of full-length luciferase after immunoprecipitation (epitope-tagged nonsense constructs); format: cell-based, Human; conditions: printed in the UAAA column of Table 3
Source text: The nonsense suppression activity in an assay as described above is shown in the Table 3 below, for a construct with a UAG nonsense mutation at position 190, followed by an adenine nucleotide in-frame, (UAGA); and a construct with a UAA nonsense mutation at position 190, followed by an adenine nucleotide in-frame, (UAAA).
Another assay of the present invention can evaluate compounds that promote nonsense mutation suppression. The luciferase constructs described above in FIG. 1 are engineered to harbor two epitope tags in the N-terminus of the luciferase protein. Based on luciferase protein production, these constructs qualitatively assess the level of translation-readthrough. The presence of the full-length luciferase protein produced by suppression of the premature termination codon is measured by immunoprecipitation of the suppressed luciferase protein (using an antibody against a His tag) followed by western blotting using an antibody against the second epitope (the Xpress™ epitope; Invitrogen®; Carlsbad, Calif.). These constructs are depicted in FIG. 2.
Cells that harbor the constructs of FIG. 2 show increased full-length protein production when treated with a compound of the present invention. After treatment for 20 hours, cells containing the constructs of FIG. 2 are collected and an antibody recognizing the His epitope is used to immunoprecipitate the luciferase protein. Following immunoprecipitation, western blotting is performed using the antibody to the Xpress™ epitope (Invitrogen®; Carlsbad, Calif.) to detect the truncated luciferase (produced when no nonsense suppression occurs) and to detect the full-length protein (produced by suppression of the nonsense codon). Treatment of cells with a test compound produces full-length protein and not a readthrough protein (See e.g. FIG. 3). The readthrough protein is produced if suppression of the normal termination codon occurs. Compounds of the present invention suppress the premature, i.e. nonsense mutation, but not the normal termination codon in the luciferase mRNA.

Row | SMILES | western blot signal (POS WB) [1] | melting point
1 | CCOc1ccc(-c2cnc(-c3cccc(C(=O)O)c3)o2)cc1 [Compound 595] | POSWB | 223 to 224 °C
2 | O=C(O)c1cccc(-c2cc(-c3ccc(Cl)cc3)on2)c1 [Compound No. 479, 3-[5-(4-chlorophenyl)isoxazol-3-yl]benzoic acid] | POSWB | 293 to 295 °C
3 | O=C(O)c1ccc(-c2ncc(-c3ccc(F)cc3F)o2)cc1 [Compound No. 548, 4-[5-(2,4-difluorophenyl)oxazol-2-yl]benzoic acid] | POSWB | 298 to 299 °C and 301 to 302 °C
4 | CC(C)c1cccc(-c2nnc(-c3ccc(C(=O)[O-])cc3)o2)c1.[Na+] [Compound 628] |  | > 300 °C
5 | CC(C)c1cccc(-c2nnc(-c3cccc(C(=O)O)c3)o2)c1 [Compound 620] |  | 190 to 192 °C
6 | CC(C)c1cccc(-c2cnc(-c3cccc(C(=O)O)c3)o2)c1 [Compound 591] |  | 213 to 215 °C
7 | O=C(O)c1cccc(-c2ncc(-c3ccccc3C(F)(F)F)o2)c1 [Compound 584] |  | 218 to 219 °C
8 | O=C(O)c1ccc(-c2cc(-c3ccc(Cl)cc3)no2)cc1 [Compound 540] |  | 320.5 to 322.5 °C
9 | O=C(O)c1cccc(-c2ncc(-c3ccc(F)cc3)o2)c1 [Compound 581] |  | 255 to 256 °C
10 | CN(C)C(=O)c1ccc(-c2nnc(-c3cccc(C(=O)O)c3)o2)cc1 [Compound 279] |  | 228 to 235 °C
11 | O=C(O)c1cccc(-c2nnc(-c3ccc(Cl)nc3)o2)c1 [Compound 222] |  | 278 to 282 °C
12 | CC(C)c1ccc(-c2cc(-c3cccc(C(=O)O)c3)no2)cc1 [Compound 290] |  | 222 to 225 °C
13 | Cc1cccc(-c2ccc(-c3nnc(-c4cccc(C(=O)O)c4)o3)cc2)c1 [Compound No. 281, 3-[5-(3′-methylbiphenyl-4-yl)-[1,3,4]oxadiazol-2-yl]benzoic acid] |  | 240 to 242 °C
14 | O=C(O)c1ccc(-c2ncc(-c3cccc(OC(F)(F)F)c3)o2)cc1 [Compound 542] |  | 284 to 285 °C
15 | COc1cccc(-c2cnc(-c3cccc(C(=O)O)c3)o2)c1 [Compound 594] |  | 207 to 208 °C
16 | O=C(O)c1ccc(-c2ncc(-c3ccsc3)o2)cc1 [Compound 558] |  | 246 to 247 °C
17 | O=C(O)c1ccc(-c2ncc(-c3cccc(C(F)(F)F)c3)o2)cc1 [Compound 543] |  | 286 to 287 °C
18 | O=C(O)c1ccc(-c2ncc(-c3ccc(F)c(Cl)c3)o2)cc1 [Compound 649] |  | 295 to 297 °C
19 | O=C(O)c1ccc(-c2ncc(-c3cc(F)cc(F)c3)o2)cc1 [Compound 641] |  | 273 to 274 °C
20 | O=C(O)c1ccc(-c2cc(-c3ccccc3F)no2)cc1 [Compound 535] |  | 302 to 303 °C
21 | CCOc1ccc(-c2n[nH]c(-c3cccc(C(=O)O)c3)n2)cc1 [Compound 461] |  | 295 to 298 °C
22 | O=C(O)c1cccc(-c2cc(-c3ccccc3F)on2)c1 [Compound 463] |  | 221 to 222 °C
23 | COc1cccc(-c2cnc(-c3ccc(C(=O)O)cc3)o2)c1 [Compound 544] |  | 240 to 242 °C
24 | O=C(O)c1cccc(-c2nc(-c3ccc(Cl)cc3)no2)c1 [Compound 508] |  | 299 to 300 °C
25 | O=C(O)c1cccc(-c2ncc(-c3cccc(F)c3)o2)c1 [Compound 580] |  | 223 to 224.5 °C
26 | CN(C)c1cc(-c2nnc(-c3ccc(C(=O)O)cc3)o2)ccn1 [Compound 224] |  | 240 to 250 °C
27 | CC(C)c1ccc(-c2ncc(-c3cccc(C(=O)O)c3)[nH]2)cc1 [Compound No. 311, 3-[2-(4-isopropylphenyl)-3H-imidazol-4-yl]benzoic acid] |  | 283 to 285 °C
28 | CN(C)c1cccc(-c2nnc(-c3ccccc3C(=O)O)o2)c1 [Compound 609] |  | 71 to 78 °C
